According to patent US5618795A, “Dibekacin derivatives and arbekacin derivatives active against resistant bacteria, and the production thereof” (Zaidan Hojin Biseibutsu Kagaku Kenkyu Kai, priority 1992, dated 1997):
Values after ≈ are worked out from the molar mass of the structure shown. Like-named read-outs stand apart in the source and are kept apart here.

Columns and labels:
[1] = P. J. L. Daniels et al.; cited from earlier work
[2] = system: clinically isolated strains of MRSA; assay: Antibacterial MIC spectra against 50 clinically isolated strains of MRSA; assay type: cell-based, methicillin-resistant Staphylococcus aureus; settings: Staphylococcus aureus; for MIC90: 90% of the 50 MRSA strains inhibited, read-out: MIC90; for MIC: range over 50 clinically isolated strains of MRSA, read-out: Antibacterial MIC spectra
Method: (§1) Minimum growth inhibitory concentrations (MIC) of each of 2"-amino-2"-deoxyarbekacin (Compound Ia), 2"-amino-5,2"-dideoxyarbekacin (Compound Ib), 2"-amino-2"-deoxydibekacin (Compound IIa) and 2"-amino-5,2"-dideoxydibekacin (Compound IIb) against various bacteria (20 strains) and against clinically isolated strains of MRSA (50 strains) were determined by standard serial dilution method on Muller-Hinton's agar medium (as estimated after cultivating at 27° C. for 18 hours), and the test results obtained are shown in TABLE 3 and TABLE 4, respectively.
Note:- MIC50 or MIC90 represents the concentration of tested
active compound at which 50% or 90% of the total numbers of the bacterial
strains tested were inhibited from their growth. DKB denotes dibekacin,
(§2) Minimum growth inhibitory concentrations (MIC) of each of 2"-amino-5,2"-dideoxy-5-epi-fluoroarbekacin (Compound XVIa) and 2"-amino-5,2"-dideoxy-5-epi-aminoarbekacin (Compound XVIb) against various bacteria (18 strains) and against clinically isolated strains of MRSA (50 strains) were determined by standard serial dilution method on Muller-Hinton's agar medium (as estimated after cultivation at 27° C. for 18 hours), and the test results obtained are shown in TABLE 5 and TABLE 6, respectively.

P. aeruginosa TI-13 = assay: MIC by standard serial dilution method on Muller-Hinton's agar; assay type: cell-based; settings: Pseudomonas aeruginosa, TI13, 18 h
Method: as §1, §2

Proteus vulgaris OX19 = assay: as above; assay type: cell-based
Method: as §1, §2

[3] = system: Shigella dysenteriae JSI1910; assay: as above; assay type: cell-based; settings: JSI1910, 18 h
Method: as §1, §2

[4] = system: Providencia rettgeri GN311; assay: as above; assay type: cell-based
Method: as §1, §2

[5] = system: Staphylococcus aureus FDA209P; assay: as above; assay type: cell-based; settings: Table 3, 27° C., 18 hours
Method: as §1, §2

Escherichia coli NIHJ = assay: as above; assay type: cell-based; settings: Table 3, 27° C., 18 hours
Method: as §1, §2

S. epidermidis 109 = assay: as above; assay type: cell-based
Method: as §1, §2

S. aureus Smith = assay: as above; assay type: cell-based; settings: Staphylococcus aureus; Table 3; 27° C., 18 hours
Method: as §1, §2

Serratia marcescens = assay: as above; assay type: cell-based; settings: Table 3, 27° C., 18 hours, read-out: MIC
Method: as §1, §2

E. coli K-12 LA290 R55 = assay: as above; assay type: cell-based; settings: Escherichia coli, K12LA290R55, 18 h
Method: as §1, §2

P. aeruginosa PST1 = assay: as above; assay type: cell-based; settings: Pseudomonas aeruginosa, Table 3, 27° C., 18 hours
Method: as §1, §2

Bacillus subtilis PCI219 = assay: as above; assay type: cell-based; settings: Table 3, 27° C., 18 hours
Method: as §1, §2

[6] = system: Klebsiella pneumoniae PCI602; assay: as above; assay type: cell-based; settings: PCI602, 18 h
Method: as §1, §2

[7] = system: Pseudomonas aeruginosa A3; assay: as above; assay type: cell-based
Method: as §1, §2

P. aeruginosa H9 = assay: as above; assay type: cell-based; settings: Pseudomonas aeruginosa, H9; Table 3; 27° C., 18 hours; read-out: MIC
Method: as §1, §2

Salmonella typhi T-63 = assay: as above; assay type: cell-based; settings: Salmonella enterica, Table 3, 27° C., 18 hours
Method: as §1, §2

E. coli K-12 ML1629 = assay: as above; assay type: cell-based; settings: Escherichia coli, K12ML1629; Table 3; 27° C., 18 hours; read-out: MIC
Method: as §1, §2

E. coli JR66/W677 = assay: as above; assay type: cell-based; settings: Escherichia coli, JR66/W677, 18 h
Method: as §1, §2

E. coli K-12 ML1410 = assay: as above; assay type: cell-based; settings: Escherichia coli, K12ML1410; Table 3; 27° C., 18 hours
Method: as §1

B. cereus ATCC10702 = assay: as above; assay type: cell-based; settings: Bacillus cereus
Method: as §1

Solubility in water = assay type: physicochemical
[8] = Acute toxicity, single intravenous administration to mice; assay type: in vivo; settings: mouse, in vivo; single intravenous administration; mice (ICR-strain, 4 weeks old, female); observations for two weeks; read-out: LD50
Excerpt: 50% Lethal dosages (LD50, observations for two weeks) of the new compounds of this invention as estimated upon single intravenous administration to mice (ICR-strain, 4 weeks old, female) are as follows:
50% Lethal dosages (LD50, observations for two weeks) of the new compounds of general formula (XVI) according to the seventh aspect of this invention as estimated upon single intravenous administration to mice (ICR-strain, 4 weeks old, female) are as follows: […]

Row | Compound | antibacterial activity (in words) [1] | MIC90 ([2]; 27° C., 18 hours) [µg/mL] | MIC ([2]; 27° C., 18 hours) [µg/mL] | MIC (P. aeruginosa TI-13) [µg/mL] | MIC [3] [µg/mL] | MIC [5] [µg/mL] | MIC (Escherichia coli NIHJ) [µg/mL] | MIC (S. aureus Smith) [µg/mL] | MIC (Serratia marcescens) [µg/mL] | MIC (E. coli K-12 LA290 R55) [µg/mL] | MIC (P. aeruginosa PST1) [µg/mL] | MIC (Bacillus subtilis PCI219) [µg/mL] | MIC [6] [µg/mL] | MIC (P. aeruginosa H9) [µg/mL] | MIC (Salmonella typhi T-63) [µg/mL] | MIC (E. coli K-12 ML1629) [µg/mL] | MIC (E. coli JR66/W677) [µg/mL] | MIC (E. coli K-12 ML1410) [µg/mL] | Solubility (Solubility in water) | LD50 at 336 h [8] [mg/kg] | further results
1 | CN[C@@H]1[C@@H](O)[C@@H](O[C@@H]2[C@H](N)[C@H](O[C@H]3OC(CN)=CC[C@H]3N)[C@@H](N)C[C@H]2N)OC[C@]1(C)O [5-epi-amino-5-deoxysisomicin] | good antibacterial activity |  |  |  |  |  |  |  |  |  |  |  |  |  |  |  |  |  |  |  | 
2 | CN[C@@H]1[C@@H](O)[C@@H](O[C@@H]2[C@H](F)[C@H](O[C@H]3OC(CN)=CC[C@H]3N)[C@@H](N)C[C@H]2N)OC[C@]1(C)O [5-epi-fluoro-5-deoxysisomicin] | good antibacterial activity |  |  |  |  |  |  |  |  |  |  |  |  |  |  |  |  |  |  |  | 
3 | NC[C@@H]1CC[C@@H](N)[C@@H](O[C@H]2[C@H](O)[C@@H](O[C@H]3O[C@H](CO)[C@@H](O)[C@H](N)[C@H]3N)[C@H](N)C[C@@H]2N)O1 [Compound IIa, 2"-Amino-2"-deoxydibekacin] |  | 25 (≈ 55.5 µM) | 0.2 to 50 (≈ 0.444 to 111 µM) | 3.13 (≈ 6.95 µM) | 3.13 (≈ 6.95 µM) | 0.78 (≈ 1.73 µM) | 0.78 (≈ 1.73 µM) | 0.39 (≈ 0.866 µM) | 12.5 (≈ 27.7 µM) | 1.56 (≈ 3.46 µM) | 50 (≈ 111 µM) | ≤ 0.2 | 3.13 (≈ 6.95 µM) | 6.25 (≈ 13.9 µM) | 1.56 (≈ 3.46 µM) | 3.13 (≈ 6.95 µM) | 3.13 (≈ 6.95 µM) | 1.56 (≈ 3.46 µM) | easily soluble in water | > 100 | MIC50 ([2]; 50% of the 50 MRSA strains inhibited, 27° C., 18 hours, read-out: MIC50): 6.25 µg/mL (≈ 13.9 µM); MIC (Proteus vulgaris OX19; OX19, 18 h): 1.56 µg/mL (≈ 3.46 µM); MIC ([4]; GN311, 18 h): 1.56 µg/mL (≈ 3.46 µM); MIC (S. epidermidis 109; Staphylococcus epidermidis, 109, 18 h): 1.56 µg/mL (≈ 3.46 µM); MIC ([7]; A3, 18 h): 1.56 µg/mL (≈ 3.46 µM); MIC (B. cereus ATCC10702; ATCC10702, 18 h): 3.13 µg/mL (≈ 6.95 µM)
4 | NC[C@@H]1CC[C@@H](N)[C@@H](O[C@H]2C[C@@H](O[C@H]3O[C@H](CO)[C@@H](O)[C@H](N)[C@H]3N)[C@H](N)C[C@@H]2N)O1 [Compound IIb, 2"-Amino-5,2"-dideoxydibekacin] |  | 25 (≈ 57.5 µM) | 0.78 to 25 (≈ 1.8 to 57.5 µM) | 3.13 (≈ 7.2 µM) | 6.25 (≈ 14.4 µM) | 0.39 (≈ 0.898 µM) | 1.56 (≈ 3.59 µM) | ≤ 0.2 | 25 (≈ 57.5 µM) | 3.13 (≈ 7.2 µM) | 100 (≈ 230 µM) | ≤ 0.2 | 3.13 (≈ 7.2 µM) | 12.5 (≈ 28.8 µM) | 3.13 (≈ 7.2 µM) | 6.25 (≈ 14.4 µM) | 6.25 (≈ 14.4 µM) | 3.13 (≈ 7.2 µM) | easily soluble in water | 50 to 100 | MIC50 ([2]; MRSA, 18 h): 3.13 µg/mL (≈ 7.2 µM); MIC (Proteus vulgaris OX19; OX19, Table 3, 27° C., 18 hours, read-out: MIC): 1.56 µg/mL (≈ 3.59 µM); MIC ([4]; GN311, Table 3, 27° C., 18 hours, read-out: MIC): 1.56 µg/mL (≈ 3.59 µM); MIC (S. epidermidis 109; Staphylococcus epidermidis, 109, Table 3, 27° C., 18 hours, read-out: MIC): 0.78 µg/mL (≈ 1.8 µM); MIC ([7]; A3, Table 3, 27° C., 18 hours, read-out: MIC): 0.78 µg/mL (≈ 1.8 µM); MIC (B. cereus ATCC10702; ATCC10702, Table 3, 27° C., 18 hours, read-out: MIC): 1.56 µg/mL (≈ 3.59 µM)
